In assay [1] the test system is human regulatory T-lymphocytes (CD4+CD25+). Nature of the assay: Gene expression of TGF-β1 (TGF-β1-mRNA) in human regulatory T-lymphocytes, quantitative RT-PCR. The class given is cell-based. To be noted: PHA/PMA plus inhibitor. How it is done: Induction of the Gene Expression of TGF-β1 in Human Regulatory T-Lymphocytes (CD4^+CD25^+) After an Incubation with the Inhibitor Phebestin
The T-cells were incubated for 24 h without adding (control), with adding PHA and PMA or with simultaneously adding PHA/PMA and phebestin. PHA (phythemagglutinine) and PMA (phorbol myristate acetate) were used as mito-gens and agents stimulating the proliferation. Subsequently, the content of TGF-β1-mRNA was determined by quantitative RT-PCR and using the i-cycler.
Induction of the Gene Expression of TGF-β1 in Human Regulatory T-Lymphocytes (CD4^+CD25^+) after an incubation with the inhibitor PAQ-22
The T-cells were incubated for 24 h without adding (control), with adding PHA and PMA and with simultaneously adding PHA/PMA and PAQ-22. PHA (phythemagglutinine) and PMA (phorbol myristate acetate) were used as mito-gens and agents stimulating the proliferation. Subsequently, the content of TGF-β1-mRNA was determined by quantitative RT-PCR and using the i-cycler.
Induction of the Gene Expression of TGF-β1 in Human Regulatory T-Lymphocytes (CD4^+CD25^+) After an Incubation with the Aminopeptidase Inhibitor RB3014
The T-cells were incubated for 72 h without adding (control), with adding PHA and PMA and with simultaneously adding PHA/PMA and RB3014. PHA (phythemagglutinine) and PMA (phorbol myristate acetate) were used as mito-gens and agents stimulating the proliferation. Subsequently, the content of TGF-β1-mRNA was determined by quantitative RT-PCR and using the i-cycler.

Assay [2] has the same test system. Nature of the assay: Surface expression of TGF-β1 on human regulatory T-lymphocytes, flow cytometry with anti-TGF-β1 antibody. The class given is cell-based. The note with it: 24 h incubation, PHA/PMA plus inhibitor; results only in FIG. 1. How it is done: Induction of the Surface Expression of TGF-β1 on Human Regulatory T-Lymphocytes (CD4^+CD25^+) After Incubation with the Inhibitor Phebestin
The T-cells were incubated for 24 h without adding (control), with adding PHA and PMA and with simultaneously adding PHA/PMA and phebestin. PHA (phythemagglutinine) and PMA (phorbol myristate acetate) were used as mito-gens and agents stimulating the proliferation. Subsequently, the surface expression of TGF-β1 was measured by flow cytometry using a commercially available polyclonal anti-TGF-β1 antibody (chicken anti-human; R & D Systems).

Setting [3] is: 24 h incubation, results only in FIG. 2, FIG. 3.

In the case of `CCc1cccc(CC)c1-n1c(=O)[nH]c2ccccc2c1=O` [PAQ-22], the “gene expression of TGF-β1 (content of TGF-β1-mRNA)” value (“gene expression of TGF-β1” below) in assay [1] (setting [3]) is “Induction”. Regarding `CC(C)[C@H](NC(=O)[C@@H](O)[C@H](N)Cc1ccccc1)C(=O)N[C@@H](Cc1ccccc1)C(=O)O` [Phebestin, phebestin], the “surface expression of TGF-β1” value in assay [2] is recorded as “Induction”. In addition, in assay [1] (setting [3]), the “gene expression of TGF-β1” value is “Induction”. As to `CC(N)P(=O)(O)CC(Cc1ccccc1)C(=O)NC(Cc1ccccc1)C(=O)O` (stereo not shown) [RB3014], the “gene expression of TGF-β1” value in assay [1] (72 h incubation, results only in FIG. 4) was “Induction”.

The values above are taken from US7425532B2, “Use of alanyl aminopeptidase inhibitors and pharmaceutical compositions containing said inhibitors” (IMTM GmbH, priority 2002, dated 2008).
